Tests used:
Assay type in all cases: in vivo
[1] = system: winter barley (Hordeum vulgare); assay: Test B postemergence plant response; conditions: for Barley plant response rating (0 to 100 scale): 62 g ai/ha, 0 is no effect, 13 to 15 days
Procedure, shortened: (§1)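 Visual ratings from 0 (no effect) to 100 (complete control), made against controls 13–15 days after treatment, kept in a greenhouse. Compounds were applied postemergence to potted plants at the 1- to 4-leaf stage (2–18 cm).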

[2] = system: windgrass (Apera spica-venti); assay: Test B postemergence plant response; conditions: for Windgrass plant response rating (0 to 100 scale): 62 g ai/ha, 0 is no effect, 13 to 15 days
Procedure, shortened: as §1

[3] = system: chickweed (Stellaria media); assay: Test B postemergence plant response; conditions: for Chickweed plant response rating (0 to 100 scale): 62 g ai/ha, 0 is no effect, 13 to 15 days
Procedure, shortened: as §1

[4] = system: canarygrass (Phalaris minor); assay: Test B postemergence plant response; conditions: for Canarygrass plant response rating (0 to 100 scale): 62 g ai/ha, 0 is no effect, 13 to 15 days
Procedure, shortened: as §1

[5] = system: corn (Zea mays); assay: Test A pre-/postemergence plant response
Procedure, shortened: (§2)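 Pre: directed soil spray on seeded loam/sand blend. Post: same formulation (non-phytotoxic solvent + surfactant) on 2–10 cm plants, 1–2 leaf stage. Greenhouse ~10 d; visual injury score 0–100 vs untreated.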

[6] = system: giant foxtail (Setaria faberii); assay: Test A pre-/postemergence plant response
Procedure, shortened: as §2

[7] = system: pigweed (Amaranthus retroflexus); assay: Test A pre-/postemergence plant response
Procedure, shortened: as §2

[8] = system: barnyardgrass (Echinochloa crus-galli); assay: Test A pre-/postemergence plant response
Procedure, shortened: as §2

[9] = system: morningglory (Ipomoea spp.); assay: Test A pre-/postemergence plant response
Procedure, shortened: as §2

[10] = system: velvetleaf (Abutilon theophrasti); assay: Test A pre-/postemergence plant response
Procedure, shortened: as §2

[11] = system: large crabgrass (Digitaria sanguinalis); assay: Test A pre-/postemergence plant response
Procedure, shortened: as §2

[12] = system: wheat (Triticum aestivum); assay: Test A pre-/postemergence plant response
Procedure, shortened: as §2

[13] = 31 g ai/ha, postemergence, scale 0 to 100, 0 is no effect, 100 is complete control
[14] = postemergence, 100 is complete control
[15] = Postemergence, 125 g ai/ha, visual rating after 13 to 15 days, scale 0 (no effect) to 100 (complete control)
[16] = Postemergence, 250 g ai/ha, scale 0 to 100 (0 no effect, 100 complete control)
[17] = Postemergence, 125 g ai/ha, 0 to 100 scale where 0 is no effect and 100 is complete control
[18] = Postemergence, 500 g ai/ha, 0 to 100 scale, 0 = no effect, 100 = complete control, approx. ten days
[19] = Preemergence, 125 g ai/ha, 0 to 100 scale, 0 = no effect, 100 = complete control
[20] = Preemergence, 500 g ai/ha, visual injury, 0 to 100 scale (0 no effect, 100 complete control), approx. ten days

With `Cc1ccc(-c2ncc(C(=O)C3=C(O)CCCC3=O)c(=O)n2-c2ccccc2)cc1` [Compound 80] the “Plant response rating, Barley” value [1, 13] was 15, the “Barley plant response rating (0 to 100 scale)” value [1, 14] was 30 and the “Plant response rating, Barley” value [1, 15] was 30. The “Plant response rating, Barley” value [1, 16] was 75, the “Plant response rating, Windgrass” value [2, 13] was 50 and the “Windgrass plant response rating (0 to 100 scale)” value [2, 14] was 60. The “Plant response rating, Windgrass” value [2, 15] was 70, the “Plant response rating, Windgrass” value [2, 16] was 80 and the “Plant response rating, Chickweed” value [3, 13] was 90. For the same molecule, the “Chickweed plant response rating (0 to 100 scale)” value [3, 14] was 98, the “Plant response rating, Chickweed” value [3, 15] was 100 and the “Plant response rating, Chickweed” value [3, 16] was 100. For the same molecule, the “Plant response rating, Canarygrass” value [4, 13] was 45, the “Canarygrass plant response rating (0 to 100 scale)” value [4, 14] was 50 and the “Plant response rating, Canarygrass” value [4, 15] was 50. For the same molecule, the “Plant response rating, Canarygrass” value [4, 16] was 70, the “Plant response rating, Corn” value [5, 17] was 0 and the “Plant response rating, Corn” value [5, 18] was 50. For the same molecule, the “Plant response rating, Corn” value [5, 19] was 0, the “Plant response rating, Corn” value [5, 20] was 0 and the “Plant response rating, Foxtail, Giant” value [6, 17] was 70. The “Plant response rating, Foxtail, Giant” value [6, 18] was 90, the “Plant response rating, Foxtail, Giant” value [6, 19] was 10 and the “Plant response rating, Foxtail, Giant” value [6, 20] was 60. The “Plant response rating, Pigweed” value [7, 17] was 100, the “Plant response rating, Pigweed” value [7, 18] was 100 and the “Plant response rating, Pigweed” value [7, 19] was 60. The “Plant response rating, Pigweed” value [7, 20] was 90, the “Plant response rating, Barnyardgrass” value [8, 17] was 30 and the “Plant response rating, Barnyardgrass” value [8, 18] was 80. The “Plant response rating, Barnyardgrass” value [8, 19] was 0, the “Plant response rating, Barnyardgrass” value [8, 20] was 10 and the “Plant response rating, Morningglory” value [9, 17] was 100. The “Plant response rating, Morningglory” value [9, 18] was 100, the “Plant response rating, Morningglory” value [9, 19] was 0 and the “Plant response rating, Morningglory” value [9, 20] was 30. For the same molecule, the “Plant response rating, Velvetleaf” value [10, 17] was 100, the “Plant response rating, Velvetleaf” value [10, 18] was 100 and the “Plant response rating, Velvetleaf” value [10, 19] was 50. The “Plant response rating, Velvetleaf” value [10, 20] was 100, the “Plant response rating, Crabgrass, Large” value [11, 17] was 70 and the “Plant response rating, Crabgrass, Large” value [11, 18] was 90. For the same molecule, the “Plant response rating, Crabgrass, Large” value [11, 19] was 50, the “Plant response rating, Crabgrass, Large” value [11, 20] was 90 and the “Plant response rating, Wheat” value [12, 17] was 0. The “Plant response rating, Wheat” value [12, 18] was 0, the “Plant response rating, Wheat” value [12, 19] was 0 and the “Plant response rating, Wheat” value [12, 20] was 0.

With `Cc1ccccc1-c1ncc(C(=O)C2=C(O)CCCC2=O)c(=O)n1-c1ccccc1` [Compound 82] the “Plant response rating, Barley” value [1, 13] was 0, the “Barley plant response rating (0 to 100 scale)” value [1, 14] was 0 and the “Plant response rating, Barley” value [1, 15] was 0. The “Plant response rating, Barley” value [1, 16] was 5, the “Plant response rating, Windgrass” value [2, 13] was 5 and the “Windgrass plant response rating (0 to 100 scale)” value [2, 14] was 5. For the same molecule, the “Plant response rating, Windgrass” value [2, 15] was 20, the “Plant response rating, Windgrass” value [2, 16] was 50 and the “Plant response rating, Chickweed” value [3, 13] was 90. The “Chickweed plant response rating (0 to 100 scale)” value [3, 14] was 90, the “Plant response rating, Chickweed” value [3, 15] was 98 and the “Plant response rating, Chickweed” value [3, 16] was 100. The “Plant response rating, Canarygrass” value [4, 13] was 0, the “Canarygrass plant response rating (0 to 100 scale)” value [4, 14] was 0 and the “Plant response rating, Canarygrass” value [4, 15] was 15. For the same molecule, the “Plant response rating, Canarygrass” value [4, 16] was 35, the “Plant response rating, Corn” value [5, 17] was 0 and the “Plant response rating, Corn” value [5, 18] was 20. The “Plant response rating, Corn” value [5, 19] was 0, the “Plant response rating, Corn” value [5, 20] was 0 and the “Plant response rating, Foxtail, Giant” value [6, 17] was 10. The “Plant response rating, Foxtail, Giant” value [6, 18] was 80, the “Plant response rating, Foxtail, Giant” value [6, 19] was 10 and the “Plant response rating, Foxtail, Giant” value [6, 20] was 40. For the same molecule, the “Plant response rating, Pigweed” value [7, 17] was 90, the “Plant response rating, Pigweed” value [7, 18] was 100 and the “Plant response rating, Pigweed” value [7, 19] was 90. For the same molecule, the “Plant response rating, Pigweed” value [7, 20] was 100, the “Plant response rating, Barnyardgrass” value [8, 17] was 10 and the “Plant response rating, Barnyardgrass” value [8, 18] was 70. For the same molecule, the “Plant response rating, Barnyardgrass” value [8, 19] was 0, the “Plant response rating, Barnyardgrass” value [8, 20] was 10 and the “Plant response rating, Morningglory” value [9, 17] was 90. For the same molecule, the “Plant response rating, Morningglory” value [9, 18] was 100, the “Plant response rating, Morningglory” value [9, 19] was 0 and the “Plant response rating, Morningglory” value [9, 20] was 60. The “Plant response rating, Velvetleaf” value [10, 17] was 100, the “Plant response rating, Velvetleaf” value [10, 18] was 100 and the “Plant response rating, Velvetleaf” value [10, 19] was 50. The “Plant response rating, Velvetleaf” value [10, 20] was 90, the “Plant response rating, Crabgrass, Large” value [11, 17] was 40 and the “Plant response rating, Crabgrass, Large” value [11, 18] was 90. For the same molecule, the “Plant response rating, Crabgrass, Large” value [11, 20] was 100, the “Plant response rating, Wheat” value [12, 17] was 0 and the “Plant response rating, Wheat” value [12, 18] was 0. For the same molecule, the “Plant response rating, Wheat” value [12, 19] was 0 and the “Plant response rating, Wheat” value [12, 20] was 0.

Source: patent US8952024B2, “Herbicidal pyrimidone derivatives” (E I du Pont de Nemours and Company, priority 2009, dated 2015)
